{
  "source": "paper PMC5171790",
  "about": "“Ribavirin suppresses bacterial virulence by targeting LysR-type transcriptional regulators” (Scientific Reports, 2016)",
  "key": {"Hrg": {"target": "Hrg", "assay": "ITC", "conditions": "10 mM sodium phosphate, 50 mM NaCl, pH 7.4, 25 °C; single-site model"}, "AphB": {"target": "T1, AphB (Vibrio cholerae, UniProt Q9KT56)", "T1 construct": "gene VC_1049", "assay": "biochemical"}},
  "data": [
    {"molecule": "NC(=O)c1ncn([C@@H]2O[C@H](CO)[C@@H](O)[C@H]2O)n1", "note": "[ribavirin, 1-D-ribofuranosyl-1H-1,2,4-triazole-3-carboxamide]", "values": [
      {"measurement": "Kd", "setting": "Hrg", "value": 235, "unit": "µM"},
      {"measurement": "Kd", "setting": "AphB", "value": "~300", "unit": "µM"}
    ]}
  ]
}
